Experimental data from US20100152434A1, “Protein Kinase-binding Nucleosides and Associated Methods” (priority 2007, published 2010).
pIC50: −log10 of the molar value. Like-named read-outs stand apart in the source and are kept apart here.

Columns and labels:
NCI-H322M = assay: cells; details: Homo sapiens
NCI/ADR-RES = NCI/ADR-RES (Ovarian Cancer panel)
UACC-62 [1] = assay: cells; details: Homo sapiens, UACC-62
HOP-92 = assay: cells; details: Homo sapiens, HOP-92
HCC-2998 = assay: cells; details: Homo sapiens, HCC 2998
U251 = assay: cells; details: Homo sapiens, U-251
RXF 393 = assay: cells; details: Homo sapiens, RXF 393
UACC-62 [2] = test system: UACC-62
HCT-15 = assay: cells; details: Homo sapiens, HCT-15
SNB-19 = assay: cells; details: Homo sapiens, SNB-19
OVCAR-4 = assay: cells; details: Homo sapiens, OVCAR-4
DU-145 = assay: cells; details: Homo sapiens, DU-145
NCI-H460 [3] = test system: NCI-H460
CAKI-1 = assay: cells; details: Homo sapiens, CAKI-1
NCI-H460 [4] = assay: cells; details: Homo sapiens, NCI-H460
IGROV1 = assay: cells; details: Homo sapiens, IGROV-1
SK-MEL-2 = assay: cells; details: Homo sapiens, SK-MEL-2
TK-10 = assay: cells; details: Homo sapiens, TK-10
[5] = Log10 Concentration −4.0, Molar
[6] = Log10 Concentration −5.0, Molar
[7] = Log10 Concentration −6.0, Molar
[8] = Log10 Concentration −7.0, Molar
[9] = Log10 Concentration −8.0, Molar

Structure (SMILES): CNC(=O)NC[C@H]1O[C@@H](n2cnc3c(NC(=O)Nc4ccccc4)ncnc32)C(O[Si](C)(C)C(C)(C)C)[C@H]1O[Si](C)(C)C(C)(C)C (stereo partly drawn) [Compound 25, 2′,3′-Bis-O-(tert-butyldimethylsilyl)-5-deoxy-5′-[(N-methylcarbamoyl)amino]-N^6-(N-phenylcarbamoyl)adenosine]
- GI50 (NCI-H322M): 6.86 µM
- pIC50 (NCI-H322M): < 4.00
- TGI (NCI/ADR-RES): 2.07E−5 Molar
- Percent Growth (NCI/ADR-RES; Log10 Concentration −4.0 Molar): −21%
- Percent Growth (NCI/ADR-RES; Log10 Concentration −5.0 Molar): 10%
- Percent Growth (NCI/ADR-RES; Log10 Concentration −6.0 Molar): 103%
- Percent Growth (NCI/ADR-RES; Log10 Concentration −7.0 Molar): 109%
- Percent Growth (NCI/ADR-RES; Log10 Concentration −8.0 Molar): 105%
- TGI (OVCAR-3): 5.54E−6 Molar
- Percent Growth (OVCAR-3; [5]): −50%
- Percent Growth (OVCAR-3; [6]): −39%
- Percent Growth (OVCAR-3; [7]): 113%
- Percent Growth (OVCAR-3; [8]): 113%
- Percent Growth (OVCAR-3; [9]): 111%
- TGI (SNB-75): 3.41E−5 Molar
- Percent Growth (SNB-75; [5]): −12%
- Percent Growth (SNB-75; [6]): 14%
- Percent Growth (SNB-75; [7]): 73%
- Percent Growth (SNB-75; [8]): 95%
- Percent Growth (SNB-75; [9]): 94%
- GI50 (UACC-62 [1]): 3.98 µM
- pIC50 (UACC-62 [1]): < 4.00
- TGI (UACC-257): 2.02E−5 Molar
- Percent Growth (UACC-257; [5]): −24%
- Percent Growth (UACC-257; [6]): 11%
- Percent Growth (UACC-257; [7]): 104%
- Percent Growth (UACC-257; [8]): 100%
- Percent Growth (UACC-257; [9]): 97%
- GI50 (HOP-92): 15.5 µM
- pIC50 (HOP-92): 4.01
- GI50 (HCC-2998): 2020 nM
- pIC50 (HCC-2998): 5.16
- TGI (SK-OV-3): >1.00E−4 Molar
- Percent Growth (SK-OV-3; [5]): 5%
- Percent Growth (SK-OV-3; [6]): 39%
- Percent Growth (SK-OV-3; [7]): 107%
- Percent Growth (SK-OV-3; [8]): 113%
- Percent Growth (SK-OV-3; [9]): 106%
- GI50 (U251): 2960 nM
- pIC50 (U251): < 4.00
- GI50 (RXF 393): 2140 nM
- pIC50 (RXF 393): 5.12
- TGI (MDA-MB-231/ATCC): 5.12E−6 Molar
- Percent Growth (MDA-MB-231/ATCC; [5]): −76%
- Percent Growth (MDA-MB-231/ATCC; [6]): −20%
- Percent Growth (MDA-MB-231/ATCC; [7]): 106%
- Percent Growth (MDA-MB-231/ATCC; [8]): 109%
- Percent Growth (MDA-MB-231/ATCC; [9]): 105%
- TGI (UACC-62 [2]): 2.36E−5 Molar
- Percent Growth (UACC-62 [2]; [5]): −39%
- Percent Growth (UACC-62 [2]; [6]): 23%
- Percent Growth (UACC-62 [2]; [7]): 90%
- Percent Growth (UACC-62 [2]; [8]): 100%
- Percent Growth (UACC-62 [2]; [9]): 102%
- GI50 (HCT-15): 3.62 µM
- pIC50 (HCT-15): < 4.00
- GI50 (SNB-19): 4.57 µM
- pIC50 (SNB-19): < 4.00
- GI50 (OVCAR-4): 3.44 µM
- pIC50 (OVCAR-4): < 4.00
- GI50 (DU-145): 2590 nM
- pIC50 (DU-145): 4.73
- TGI (NCI-H460 [3]): 3.49E−6 Molar
- Percent Growth (NCI-H460 [3]; [5]): −75%
- Percent Growth (NCI-H460 [3]; [6]): −74%
- Percent Growth (NCI-H460 [3]; [7]): 88%
- Percent Growth (NCI-H460 [3]; [8]): 93%
- Percent Growth (NCI-H460 [3]; [9]): 104%
- TGI (SN12C): 3.38E−6 Molar
- Percent Growth (SN12C; [5]): −90%
- Percent Growth (SN12C; [6]): −87%
- Percent Growth (SN12C; [7]): 98%
- Percent Growth (SN12C; [8]): 100%
- Percent Growth (SN12C; [9]): 100%
- TGI (M14): 1.85E−5 Molar
- Percent Growth (M14; [5]): −52%
- Percent Growth (M14; [6]): 19%
- Percent Growth (M14; [7]): 105%
- Percent Growth (M14; [8]): 107%
- Percent Growth (M14; [9]): 101%
- GI50 (CAKI-1): 2700 nM
- pIC50 (CAKI-1): < 4.00
- GI50 (NCI-H460 [4]): 1720 nM
- pIC50 (NCI-H460 [4]): 5.15
- GI50 (IGROV1): 2740 nM
- pIC50 (IGROV1): < 4.00
- TGI (A549/ATCC): 1.20E−5 Molar
- Percent Growth (A549/ATCC; [5]): −30%
- Percent Growth (A549/ATCC; [6]): 4%
- Percent Growth (A549/ATCC; [7]): 90%
- Percent Growth (A549/ATCC; [8]): 98%
- Percent Growth (A549/ATCC; [9]): 99%
- GI50 (SK-MEL-2): 2450 nM
- pIC50 (SK-MEL-2): 4.55
- GI50 (TK-10): 4.29 µM
- pIC50 (TK-10): < 4.00
- TGI (SF-539): 1.30E−5 Molar
- Percent Growth (SF-539; [5]): −51%
- Percent Growth (SF-539; [6]): 7%
- Percent Growth (SF-539; [7]): 91%
- Percent Growth (SF-539; [8]): 100%
- Percent Growth (SF-539; [9]): 100%
